Experimental data taken from patent publication US9056843B2, “Trifluoromethyl-oxadiazole derivatives and their use in the treatment of disease” (NOVARTIS AG, priority 2011, dated 2015).

How the values were obtained:
Format in all cases: biochemical
Human recombinant HDAC4 [1] = target: T1, Human recombinant HDAC4 (Homo sapiens (Human), UniProt P56524); assay: Test 1: HDAC4 assay (fluorogenic substrate, 10 μM acetyl-Gly-Ala-Lys(trifluoroacetyl)-AMC); conditions: Test 1 (values indicated by an asterisk)
T1 sequence (P56524 2-1084): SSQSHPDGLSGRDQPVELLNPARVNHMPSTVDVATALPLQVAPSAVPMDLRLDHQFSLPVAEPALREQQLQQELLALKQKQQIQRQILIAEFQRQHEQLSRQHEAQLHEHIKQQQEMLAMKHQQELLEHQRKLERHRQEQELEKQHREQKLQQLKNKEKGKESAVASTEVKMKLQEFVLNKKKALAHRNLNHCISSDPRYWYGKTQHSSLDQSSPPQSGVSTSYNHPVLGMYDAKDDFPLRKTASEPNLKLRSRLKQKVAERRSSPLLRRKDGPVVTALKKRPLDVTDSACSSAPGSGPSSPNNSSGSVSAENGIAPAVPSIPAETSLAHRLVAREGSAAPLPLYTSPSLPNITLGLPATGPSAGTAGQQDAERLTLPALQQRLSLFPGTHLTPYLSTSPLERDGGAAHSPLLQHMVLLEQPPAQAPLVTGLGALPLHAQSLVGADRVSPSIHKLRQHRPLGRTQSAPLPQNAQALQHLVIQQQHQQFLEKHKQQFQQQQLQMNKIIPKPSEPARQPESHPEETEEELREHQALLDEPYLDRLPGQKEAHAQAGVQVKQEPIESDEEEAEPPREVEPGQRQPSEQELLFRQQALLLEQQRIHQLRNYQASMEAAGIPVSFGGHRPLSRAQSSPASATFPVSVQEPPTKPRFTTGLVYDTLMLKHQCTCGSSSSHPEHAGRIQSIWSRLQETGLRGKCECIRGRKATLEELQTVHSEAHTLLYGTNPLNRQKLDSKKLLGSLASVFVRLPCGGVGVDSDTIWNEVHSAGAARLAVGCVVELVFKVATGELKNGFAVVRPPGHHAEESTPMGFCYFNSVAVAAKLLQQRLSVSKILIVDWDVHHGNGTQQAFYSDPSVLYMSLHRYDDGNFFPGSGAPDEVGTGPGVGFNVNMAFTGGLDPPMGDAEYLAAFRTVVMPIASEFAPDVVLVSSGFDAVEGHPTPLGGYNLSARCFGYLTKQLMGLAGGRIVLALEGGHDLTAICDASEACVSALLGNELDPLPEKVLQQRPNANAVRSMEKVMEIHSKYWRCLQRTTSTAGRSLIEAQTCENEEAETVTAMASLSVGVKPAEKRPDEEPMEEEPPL
Experimental: Test 1: HDAC4 Assay Description
Human recombinant HDAC4 was expressed in full length form (aa 2-1084) in Sf9 insect cells (obtained from ATCC) using baculovirus generated with Bac-to-Bac system (Invitrogen). Test compounds were serially diluted to reach final test concentrations from 0.003 μM to 100 μM. HDAC4 and test compounds were incubated in 25 mM Tris buffer pH 8.0 containing 137 mM NaCl, 2.7 mM KCl, 1 mM MgCl2 and 0.05% (w/v) bovine serum albumine for 2 hours at room temperature in presence of 10 μM of acetyl-Gly-Ala-Lys(E-trifluoroacetyl)-AMC (AMC=7-amino-4-methyl coumarin) in a final volume of 200 μl. Control wells with HDAC4 only (positive control) and without HDAC4 (negative control) were included on the microplate. Bovine trypsin (10 μl of a 0.4 mg/ml solution) was added and the plate incubated for additional 15 minutes at room temperature. The plate was placed in a fluorescence microplate reader, and read at an excitation wavelength of 360 nm and an emission wavelength of 450 nm with a cut-off filter of 435 nm. Fluorescence values for all wells containing HDAC4 (positive control and wells with test compound) were corrected by subtracting negative control fluorescence values, and IC50 values were calculated by fitting the dose-response curves to a 4-parameter logistic function.
HDAC4 IC50 values were obtained using Test 2, except those values indicated by an asterisk which were obtained using Test 1. NT=Not Tested

Human recombinant HDAC4 [2] = target: T1, Human recombinant HDAC4; assay: Test 2: HDAC4 assay (fluorogenic substrate, 5 μM acetyl-Gly-Ala-Lys(ε-trifluoroacetyl)-AMC); conditions: Test 2 (values without asterisk)
Procedure, shortened: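 After the reaction, bovine trypsin (300 nM solution) was added for 15 min at RT to develop the signal; fluorescence read at 360/450 nm. No-enzyme background subtracted; IC50 from 4-parameter logistic fit of dose-response curves.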

[3] = target: Human recombinant full length HDAC1 (Homo sapiens (Human), UniProt Q13547); assay: Test 3: HDAC1 assay; conditions: substrate 5 μM acetyl-Gly-Ala-Lys(acetyl)-AMC
Human recombinant full length HDAC1, sequence (Q13547 whole entry): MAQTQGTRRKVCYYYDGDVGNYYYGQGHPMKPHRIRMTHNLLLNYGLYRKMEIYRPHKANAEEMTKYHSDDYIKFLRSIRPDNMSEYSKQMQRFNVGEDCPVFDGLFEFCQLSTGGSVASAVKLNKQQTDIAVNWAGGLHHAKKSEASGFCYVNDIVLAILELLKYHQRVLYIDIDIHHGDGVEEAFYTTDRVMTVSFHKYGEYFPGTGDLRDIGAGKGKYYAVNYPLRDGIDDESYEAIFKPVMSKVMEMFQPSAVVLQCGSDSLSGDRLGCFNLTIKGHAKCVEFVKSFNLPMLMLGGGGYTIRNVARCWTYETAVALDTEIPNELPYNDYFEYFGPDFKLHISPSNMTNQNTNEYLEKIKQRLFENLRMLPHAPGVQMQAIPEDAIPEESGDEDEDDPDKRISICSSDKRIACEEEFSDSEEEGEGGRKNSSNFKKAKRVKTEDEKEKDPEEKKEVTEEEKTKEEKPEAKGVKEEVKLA
Procedure, shortened: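 Baculovirus-expressed full-length human HDAC1 with 5 μM acetyl-Gly-Ala-Lys(acetyl)-AMC substrate, developed with trypsin 15 min at room temperature.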

[4] = target: Human recombinant full length HDAC6 (Homo sapiens (Human), UniProt Q9UBN7); assay: Test 4: HDAC6 assay; conditions: Test 4; substrate 5 μM acetyl-Gly-Ala-Lys(acetyl)-AMC
Human recombinant full length HDAC6, sequence (Q9UBN7 whole entry): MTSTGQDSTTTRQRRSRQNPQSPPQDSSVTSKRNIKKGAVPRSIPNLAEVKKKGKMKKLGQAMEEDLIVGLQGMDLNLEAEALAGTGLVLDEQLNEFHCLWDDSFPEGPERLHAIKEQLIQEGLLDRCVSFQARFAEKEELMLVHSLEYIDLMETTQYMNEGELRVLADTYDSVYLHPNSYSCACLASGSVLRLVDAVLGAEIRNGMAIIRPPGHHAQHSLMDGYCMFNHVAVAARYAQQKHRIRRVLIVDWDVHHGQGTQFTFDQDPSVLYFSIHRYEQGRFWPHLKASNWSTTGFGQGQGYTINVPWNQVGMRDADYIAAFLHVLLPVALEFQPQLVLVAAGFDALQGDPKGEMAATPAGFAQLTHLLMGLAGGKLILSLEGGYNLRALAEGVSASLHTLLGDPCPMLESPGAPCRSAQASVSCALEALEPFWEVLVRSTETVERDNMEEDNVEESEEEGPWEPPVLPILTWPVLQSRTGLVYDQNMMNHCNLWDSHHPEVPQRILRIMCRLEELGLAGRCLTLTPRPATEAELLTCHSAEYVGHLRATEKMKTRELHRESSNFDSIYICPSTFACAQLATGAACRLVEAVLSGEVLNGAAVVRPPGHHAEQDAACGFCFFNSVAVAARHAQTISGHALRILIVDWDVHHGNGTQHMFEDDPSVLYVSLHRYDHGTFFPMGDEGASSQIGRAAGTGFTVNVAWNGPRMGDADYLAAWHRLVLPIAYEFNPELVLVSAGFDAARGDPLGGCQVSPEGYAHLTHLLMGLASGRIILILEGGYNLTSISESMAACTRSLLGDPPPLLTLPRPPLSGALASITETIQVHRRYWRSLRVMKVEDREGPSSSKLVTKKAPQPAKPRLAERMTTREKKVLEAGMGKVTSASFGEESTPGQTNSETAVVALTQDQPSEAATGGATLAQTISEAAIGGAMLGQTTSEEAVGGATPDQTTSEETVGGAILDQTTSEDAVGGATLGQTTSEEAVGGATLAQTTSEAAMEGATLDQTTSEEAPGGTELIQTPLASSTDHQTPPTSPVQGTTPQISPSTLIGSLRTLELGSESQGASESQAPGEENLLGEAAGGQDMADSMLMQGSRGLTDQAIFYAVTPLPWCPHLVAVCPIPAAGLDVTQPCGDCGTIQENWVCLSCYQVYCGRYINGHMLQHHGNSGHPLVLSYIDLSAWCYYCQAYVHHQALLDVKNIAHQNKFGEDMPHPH
Procedure, shortened: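 Baculovirus-expressed full-length recombinant human HDAC6 with 5 μM acetyl-Gly-Ala-Lys(acetyl)-AMC substrate, developed with trypsin 15 min at room temperature.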

| IC50 (Human recombinant HDAC4 [1]) [nM] | IC50 (Human recombinant HDAC4 [2]) [nM] | IC50 [3] [µM] | IC50 [4] [µM] | Compound |
| --- | --- | --- | --- | --- |
| 1500 | – | – | – | CN(C)c1ccc(NC(=O)c2ccc(-c3noc(C(F)(F)F)n3)cc2)cc1 [Example 41, N-(4-(dimethylamino)phenyl)-4-(5-(trifluoromethyl)-1,2,4-oxadiazol-3-yl)benzamide] |
| 48 | – | – | – | CCN(CC)C[C@H](C)NC(=O)c1ccc(-c2noc(C(F)(F)F)n2)cc1 [Example 133, (S)—N-(1-(diethylamino)propan-2-yl)-4-(5-(trifluoromethyl)-1,2,4-oxadiazol-3-yl)benzamide] |
| – | 730 | > 10 | 5.7 | COCCCNC(=O)c1ccc(-c2noc(C(F)(F)F)n2)cc1 [Example 21, N-(3-methoxyypropyl)-4-(5-(trifluoromethyl)-1,2,4-oxadiazol-3-yl)benzamide] |
| – | 48 | > 10 | > 10 | CC(C)C[C@H](CN(C)C)NC(=O)c1ccc(-c2noc(C(F)(F)F)n2)cc1 [Example 85, (R)—N-(1-(dimethylamino)-4-methylpentan-2-yl)-4-(5-(trifluoromethyl)-1,2,4-oxadiazol-3-yl)benzamide] |
| – | 12 | 2.9 | 2.6 | CCN(CC)CCNC(=O)c1ccc(-c2noc(C(F)(F)F)n2)cc1 [Example 155, N-(2-(diethylamino)ethyl)-4-(5-(trifluoromethyl)-1,2,4-oxadiazol-3-yl)benzamide] |
| – | 300 | > 10 | 3.9 | CN1CCC(NC(=O)c2ccc(-c3noc(C(F)(F)F)n3)cc2)CC1 [Example 38, N-(1-methylpiperidin-4-yl)-4-(5-(trifluoromethyl)-1,2,4-oxadiazol-3-yl)benzamide] |
| – | 4.5 | > 10 | > 10 | CC(C)N(C)C[C@@H](C)NC(=O)c1ccc(-c2noc(C(F)(F)F)n2)cc1 [Example 138, (R)—N-(1-(isopropyl(methyl)amino)propan-2-yl)-4-(5-(trifluoromethyl)-1,2,4-oxadiazol-3-yl)benzamide] |

More lines, now with the values behind:

| Compound | IC50 (Human recombinant HDAC4 [1]) [nM] | IC50 (Human recombinant HDAC4 [2]) [nM] | IC50 [3] [µM] | IC50 [4] [µM] |
| --- | --- | --- | --- | --- |
| O=C(NC1CC1)c1ccc(-c2noc(C(F)(F)F)n2)cc1 [Example 19, N-cyclopropyl-4-(5-(trifluoromethyl)-1,2,4-oxadiazol-3-yl)benzamide] | 120 | – | – | – |
| O=S(=O)(Nc1cccnc1)c1ccc(-c2noc(C(F)(F)F)n2)cc1 [Example 100, N-(ppyridin-3-yl)-4-(5-(trifluoromethyl)-1,2,4-oxadiazol-3-yl)benzenesulfonamide] | 70 | – | – | – |
| Cc1cc(NC(=O)c2ccc(-c3noc(C(F)(F)F)n3)cc2)ccn1 [Example 70, N-(2-methylpyridin-4-yl)-4-(5-(trifluoromethyl)-1,2,4-oxadiazol-3-yl)benzamide] | 90 | – | – | – |
| O=S(=O)(Nc1cccc(F)c1)c1ccc(-c2noc(C(F)(F)F)n2)cc1 [Example 106, N-(3-fluorophenyl)-4-(5-(trifluoromethyl)-1,2,4-oxadiazol-3-yl)benzenesulfonamide] | 200 | – | – | – |
| O=C(NCCc1ccccc1)c1ccc(-c2noc(C(F)(F)F)n2)cc1 [Example 45, N-phenethyl-4-(5-(trifluoromethyl)-1,2,4-oxadiazol-3-yl)benzamide] | – | 4200 | > 10 | > 10 |
| O=S(=O)(Nc1ccc(Cl)cc1)c1ccc(-c2noc(C(F)(F)F)n2)cc1 [Example 110, N-(4-chlorophenyl)-4-(5-(trifluoromethyl)-1,2,4-oxadiazol-3-yl)benzenesulfonamide] | – | 200 | > 10 | 2 |
| Cc1ccccc1NS(=O)(=O)c1ccc(-c2noc(C(F)(F)F)n2)cc1 [Example 103, N-o-tolyl-4-(5-trifluoromethyl-[1,2,4]oxadiazol-3-yl)-benzenesulfonamide] | – | 80 | > 10 | 0.7 |
| O=C(NC1CCCNC1)c1ccc(-c2noc(C(F)(F)F)n2)cc1 (stereo not drawn) [Example 79, N-(piperidin-3-yl)-4-(5-(trifluoromethyl)-1,2,4-oxadiazol-3-yl)benzamide] | – | 800 | > 10 | > 10 |
